Read-outs that look alike come from different tables or passages of the source.
Tests used:
Assay type in all cases: biochemical
[1] = target: wild-type un-phosphorylated FGFR3 protein (Homo sapiens (Human), UniProt P22607); assay: FGFR Enzymatic Assay (FRET peptide phosphorylation), FGFR3; conditions: pre-incubated for 4 hours
[2] = target: FGFR1 (Homo sapiens (Human), UniProt P11362); assay: FGFR Enzymatic Assay (FRET peptide phosphorylation), FGFR1; conditions: pre-incubated for 4 hours
[3] = target: FGFR2 (Homo sapiens (Human), UniProt P21802); assay: FGFR Enzymatic Assay (FRET peptide phosphorylation), FGFR2
Sequence of FGFR2 (P21802 22-821): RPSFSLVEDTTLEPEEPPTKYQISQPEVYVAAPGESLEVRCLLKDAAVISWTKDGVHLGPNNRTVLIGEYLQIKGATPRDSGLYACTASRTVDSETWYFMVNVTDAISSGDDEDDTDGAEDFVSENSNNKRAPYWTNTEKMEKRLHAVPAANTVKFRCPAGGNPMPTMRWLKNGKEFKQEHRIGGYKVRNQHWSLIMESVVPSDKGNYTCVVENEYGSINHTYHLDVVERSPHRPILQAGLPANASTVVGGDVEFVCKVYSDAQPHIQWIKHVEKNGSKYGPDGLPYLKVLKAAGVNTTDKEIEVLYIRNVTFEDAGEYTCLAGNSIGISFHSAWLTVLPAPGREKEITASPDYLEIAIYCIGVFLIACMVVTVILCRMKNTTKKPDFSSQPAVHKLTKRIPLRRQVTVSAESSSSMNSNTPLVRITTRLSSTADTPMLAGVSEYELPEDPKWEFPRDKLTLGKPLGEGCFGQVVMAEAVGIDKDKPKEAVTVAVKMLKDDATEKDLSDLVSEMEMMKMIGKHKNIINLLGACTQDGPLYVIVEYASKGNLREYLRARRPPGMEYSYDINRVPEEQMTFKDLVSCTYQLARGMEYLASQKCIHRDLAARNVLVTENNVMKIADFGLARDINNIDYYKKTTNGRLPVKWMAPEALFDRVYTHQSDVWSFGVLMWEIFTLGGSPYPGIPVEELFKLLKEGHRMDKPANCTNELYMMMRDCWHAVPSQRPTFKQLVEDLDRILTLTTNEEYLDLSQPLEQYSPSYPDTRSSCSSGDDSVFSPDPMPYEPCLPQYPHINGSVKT

Sequence of wild-type un-phosphorylated FGFR3 protein (P22607 23-806): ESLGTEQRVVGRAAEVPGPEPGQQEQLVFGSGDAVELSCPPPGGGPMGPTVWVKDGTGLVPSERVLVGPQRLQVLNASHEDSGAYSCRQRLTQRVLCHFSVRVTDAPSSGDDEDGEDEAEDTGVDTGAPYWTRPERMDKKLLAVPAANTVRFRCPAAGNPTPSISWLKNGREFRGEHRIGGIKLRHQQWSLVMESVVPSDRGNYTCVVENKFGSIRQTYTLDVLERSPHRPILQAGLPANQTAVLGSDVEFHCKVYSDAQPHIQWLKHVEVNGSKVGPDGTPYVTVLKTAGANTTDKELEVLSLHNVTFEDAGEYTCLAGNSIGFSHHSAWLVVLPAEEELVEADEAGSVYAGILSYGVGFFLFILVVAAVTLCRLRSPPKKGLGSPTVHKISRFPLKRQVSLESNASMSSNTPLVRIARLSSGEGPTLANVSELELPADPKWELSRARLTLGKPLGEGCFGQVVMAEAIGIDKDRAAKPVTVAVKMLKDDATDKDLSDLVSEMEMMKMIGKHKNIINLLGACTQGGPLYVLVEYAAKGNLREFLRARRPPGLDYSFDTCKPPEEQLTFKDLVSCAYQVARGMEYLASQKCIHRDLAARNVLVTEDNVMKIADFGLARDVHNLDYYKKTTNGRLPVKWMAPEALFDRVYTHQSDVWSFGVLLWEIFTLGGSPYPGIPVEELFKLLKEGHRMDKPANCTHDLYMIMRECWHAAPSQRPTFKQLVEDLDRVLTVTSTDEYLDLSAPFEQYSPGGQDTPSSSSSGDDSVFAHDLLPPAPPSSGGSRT
Sequence of FGFR1 (P11362 22-822): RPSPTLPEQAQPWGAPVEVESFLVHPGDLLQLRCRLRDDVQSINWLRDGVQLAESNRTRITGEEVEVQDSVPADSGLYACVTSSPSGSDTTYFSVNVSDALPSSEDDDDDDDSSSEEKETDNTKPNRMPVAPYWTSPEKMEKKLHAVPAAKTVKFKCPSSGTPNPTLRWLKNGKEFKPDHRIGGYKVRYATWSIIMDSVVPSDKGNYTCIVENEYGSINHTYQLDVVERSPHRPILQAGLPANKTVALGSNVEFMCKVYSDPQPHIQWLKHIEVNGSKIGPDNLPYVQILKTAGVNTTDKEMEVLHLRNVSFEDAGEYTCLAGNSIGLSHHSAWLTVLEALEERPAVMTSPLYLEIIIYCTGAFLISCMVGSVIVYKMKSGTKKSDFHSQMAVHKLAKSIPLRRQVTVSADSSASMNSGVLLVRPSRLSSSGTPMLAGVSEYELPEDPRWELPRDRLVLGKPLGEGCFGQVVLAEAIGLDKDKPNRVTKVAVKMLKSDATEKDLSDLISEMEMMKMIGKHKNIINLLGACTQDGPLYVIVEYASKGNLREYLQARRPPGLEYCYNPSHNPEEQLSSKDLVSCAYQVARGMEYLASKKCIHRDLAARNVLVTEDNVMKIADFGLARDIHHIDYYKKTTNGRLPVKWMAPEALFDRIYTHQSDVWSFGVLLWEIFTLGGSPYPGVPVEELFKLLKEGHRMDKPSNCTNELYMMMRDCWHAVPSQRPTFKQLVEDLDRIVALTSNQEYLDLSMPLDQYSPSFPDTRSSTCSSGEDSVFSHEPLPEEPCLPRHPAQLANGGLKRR

Row | Compound | IC50 [1] [nM] | IC50 [2] [nM] | IC50 ([3]; pre-incubated for 4 hours) [nM] | IC50 [3] [nM]
1 | CNC(=O)c1cccc(-c2cnn3cc(-c4cnn(C)c4)c(OC4CCOC4)nc23)c1 (racemic) [Example 1, N-Methyl-3-(6-(1-methyl-1H-pyrazol-4-yl)-5-((tetrahydrofuran-3-yl)oxy)pyrazolo[1,5-a]pyrimidin-3-yl)benzamide] | < 10 | 30 to 200 | < 10 | 
2 | CNC(=O)c1ccc(F)c(-c2cnn3cc(-c4cnn(C)c4)c(OC4CCOC4)nc23)c1 (racemic) [Example 2, 4-Fluoro-N-methyl-3-(6-(1-methyl-1H-pyrazol-4-yl)-5-((tetrahydrofuran-3-yl)oxy)pyrazolo[1,5-a]pyrimidin-3-yl)benzamide] | < 10 | 30 to 200 | < 10 | 
3 | CNC(=O)c1cc(C)c(F)c(-c2cnn3cc(-c4cnn(C)c4)c(O[C@H]4CCOC4)nc23)c1 [Example 5, (S)-4-Fluoro-N,3-dimethyl-5-(6-(1-methyl-1H-pyrazol-4-yl)-5-((tetrahydrofuran-3-yl)oxy)pyrazolo[1,5-a]pyrimidin-3-yl)benzamide] | < 10 | < 10 | < 10 | 
4 | CNC(=O)c1cc(C#N)cc(-c2cnn3cc(-c4cnn(C)c4)c(O[C@H]4CCOC4)nc23)c1 [Example 6, (S)-3-Cyano-N-methyl-5-(6-(1-methyl-1H-pyrazol-4-yl)-5-((tetrahydrofuran-3-yl)oxy)pyrazolo[1,5-a]pyrimidin-3-yl)benzamide] | < 10 | 10 to 30 | < 10 | 
5 | CNC(=O)c1cncc(-c2cnn3cc(-c4cnn(C)c4)c(N[C@H]4CCOC4)nc23)c1 [Example 7, (S)—N-Methyl-5-(6-(1-methyl-1H-pyrazol-4-yl)-5-((tetrahydrofuran-3-yl)amino)pyrazolo[1,5-a]pyrimidin-3-yl)nicotinamide] | < 10 | 30 to 200 |  | 
6 | CNC(=O)c1cc(C#N)cc(-c2cnn3cc(-c4cnn(C)c4)c(N[C@H]4CCOC4)nc23)c1 [Example 8, (S)-3-Cyano-N-methyl-5-(6-(1-methyl-1H-pyrazol-4-yl)-5-((tetrahydrofuran-3-yl)amino)pyrazolo[1,5-a]pyrimidin-3-yl)benzamide] | < 10 | 30 to 200 |  | 
7 | CNC(=O)c1cncc(-c2cnn3cc(-c4cnn(C(C)C)c4)c(N[C@H]4CCOC4)nc23)c1 [Example 10, (S)-5-(6-(1-Isopropyl-1H-pyrazol-4-yl)-5-((tetrahydrofuran-3-yl)amino)pyrazolo[1,5-a]pyrimidin-3-yl)-N-methylnicotinamide] | < 10 | 30 to 200 |  | 
8 | CNC(=O)c1cc(F)c(F)c(-c2cnn3cc(-c4cnn(C5CCN(C)CC5)c4)c(O[C@H]4CCOC4)nc23)c1 [Example 11, (S)-3,4-Difluoro-N-methyl-5-(6-(1-(1-methylpiperidin-4-yl)-1H-pyrazol-4-yl)-5-((tetrahydrofuran-3-yl)oxy)pyrazolo[1,5-a]pyrimidin-3-yl)benzamide] | < 10 | < 10 | < 10 | 
9 | CNC(=O)c1cc(F)c(F)c(-c2cnn3cc(-c4ccc(N5CCN(C)CC5)cc4)c(O[C@H]4CCOC4)nc23)c1 [Example 12, (S)-3,4-Difluoro-N-methy1-5-(6-(4-(4-methylpiperazin-1-yl)pheny1)-5-((tetrahydrofuran-3-yl)oxy)pyrazolo[1,5-a]pyrimidin-3-yl)benzamide] | < 10 | < 10 |  | < 10
10 | CNC(=O)c1cc(F)c(F)c(-c2cnn3cc(-c4ccc(N5CCN(C)CC5)nc4)c(O[C@H]4CCOC4)nc23)c1 [Example 13, (S)-3,4-Difluoro-N-methy1-5-(6-(6-(4-methylpiperazin-1-yl)pyridin-3-y1)-5-((tetrahydrofuran-3-yl)oxy)pyrazolo[1,5-a]pyrimidin-3-yl)benzamide] | < 10 | 10 to 30 | < 10 | 
11 | CNC(=O)c1cc(F)c(F)c(-c2cnn3cc(-c4cnn(CCN5CCOCC5)c4)c(O[C@H]4CCOC4)nc23)c1 [Example 14, (S)-3,4-Difluoro-N-methy1-5-(6-(1-(2-morpholinoethyl)-1H-pyrazol-4-y1)-5-((tetrahydrofuran-3-yl)oxy)pyrazolo[1,5-a]pyrimidin-3-yl)benzamide] | < 10 | < 10 |  | < 10
12 | CNC(=O)c1cc(F)c(F)c(-c2cnn3cc(-c4ccc(C)nc4)c(O[C@H]4CCOC4)nc23)c1 [Example 15, (S)-3,4-Difluoro-N-methyl-5-(6-(6-methylpyridin-3-y1)-5-((tetrahydrofuran-3-yl)oxy)pyrazolo[1,5-a]pyrimidin-3-yl)benzamide] | < 10 | 30 to 200 |  | < 10
13 | CNC(=O)c1cc(C)c(F)c(-c2cnn3cc(-c4cnn(C)c4)c(N[C@H]4CCOC4)nc23)c1 [Example 16, (S)-4-Fluoro-N,3-dimethyl-5-(6-(1-methyl-1H-pyrazol-4-yl)-5-((tetrahydrofuran-3-yl)amino)pyrazolo[1,5-a]pyrimidin-3-yl)benzamide] | < 10 | 30 to 200 | < 10 | 
14 | CNC(=O)c1cc(F)c(F)c(-c2cnn3cc(-c4cnn(C5CN(C)C5)c4)c(O[C@H]4CCOC4)nc23)c1 [Example 17, (S)-3,4-Difluoro-N-methyl-5-(6-(1-(1-methylazetidin-3-yl)-1H-pyrazol-4-yl)-5-((tetrahydrofuran-3-yl)oxy)pyrazolo[1,5-a]pyrimidin-3-yl)benzamide] | < 10 | < 10 | < 10 | 
15 | CNC(=O)c1cncc(-c2cnn3cc(-c4ccc(N5CCN(C)CC5)cc4)c(O[C@H]4CCOC4)nc23)c1 [Example 18, (S)—N-Methyl-5-(6-(4-(4-methylpiperazin-1-yl)phenyl)-5-((tetrahydrofuran-3-yl)oxy)pyrazolo[1,5-a]pyrimidin-3-yl)nicotinamide] | < 10 | 30 to 200 | < 10 | 
16 | CNC(=O)c1cc(-c2cnn3cc(-c4cnc(NC)c(C)c4)c(O[C@H]4CCOC4)nc23)c(F)c(C(F)F)c1 [Example 24, (S)-3-(Difluoromethyl)-4-fluoro-N-methyl-5-(6-(5-methyl-6-(methylamino)pyridin-3-yl)-5-((tetrahydrofuran-3-yl)oxy)pyrazolo[1,5-a]pyrimidin-3-yl)benzamide] |  | ≥ 200 | 10 to 30 | 
17 | CNC(=O)c1cc(C#N)cc(-c2cnn3cc(-c4cccnc4)c(O[C@H]4CCOC4)nc23)c1 [Example 27, (S)-3-Cyano-N-methyl-5-(6-(pyridin-3-yl)-5-((tetrahydrofuran-3-yl)oxy)pyrazolo[1,5-a]pyrimidin-3-yl)benzamide] |  | ≥ 200 | 10 to 30 | 
18 | CNC(=O)c1cc(C#N)cc(-c2cnn3cc(-c4cncc(C)c4)c(O[C@H]4CCOC4)nc23)c1 [Example 29, (S)-3-Cyano-N-methyl-5-(6-(5-methylpyridin-3-yl)-5-((tetrahydrofuran-3-yl)oxy)pyrazolo[1,5-a]pyrimidin-3-yl)benzamide] |  | ≥ 200 | 30 to 200 | 
19 | CNC(=O)c1cc(C)c(F)c(-c2cnn3cc(-c4ccnnc4)c(N[C@H]4CCOC4)nc23)c1 [Example 44, (S)-4-Fluoro-N,3-dimethyl-5-(6-(pyridazin-4-yl)-5-((tetrahydrofuran-3-yl)amino)pyrazolo[1,5-a]pyrimidin-3-yl)benzamide] |  | ≥ 200 | 10 to 30 | 
